Measurements reported in US9345691B2, “Beta-lactam compounds for enhancing T cell-mediated immune responses” (STEM CELL MEDICINE LTD., priority 2011, dated 2016).

Columns and labels:
CD4+ human T cells = assay: Human Autoimmune and Inflammatory Response Gene Array, anti-CD3 stimulated T cells; assay type: cell-based; conditions: 120 min anti-CD3; for % increase by Amp.: ampicillin 50 μg/ml
Method: T cells were purified from the peripheral bloods of healthy human donors (Blood Bank, Sheba Medical center). The whole blood was incubated (20 min, 22° C.) with RosetteSep™ human T cell enrichment mixture (StemCell Technologies, Vancouver, Canada). The remaining unsedimented cells were then loaded onto lymphocyte separation medium (ICN Biomedicals, Irvine, Calif.), isolated by density centrifugation, and washed with PBS. […] In a second round of purification, CD3^+ T cells were labeled for selection with a magnetically coupled mAb against CD4 (Miltenyi Biotec, Auburn, Calif.).
Human CD4 T cells were isolated as described, and incubated in 24 well plates (Nunc), 4×10^6 cells/ml with plate bound anti-human CD3 (OKT3) at 2 μg/ml. The stimulation was performed in RPMI medium supplemented with 0.1% BSA. […] RNA was extracted from samples and used to prepare probes for gene array in accord with the manufacturer's instructions (SuperArray Bioscience, Frederick, Md.). Adequate labeling of the probes was tested before hybridization. Three healthy donors were tested in stimulation with cefuroxime. The membranes were analyzed online with the Image Data Acquisition and Expression Analysis (SuperArray Bioscience).
The Human Autoimmune and Inflammatory Response Gene Array (SuperArray Bioscience corporation, Frederick, Md., USA) was used for analysis of gene expression by the T cells. This array contains 367 genes including cytokines, chemokines and their receptors, transcription factors and signaling proteins. […] Analysis of the results was performed using the GEArray analysis program (www.SuperArray.com). […] To verify the results detected by the gene array study, a panel of six genes was designed and tested by real-time PCR: CCR4, ACVR2, JAK1, STAT4, TLR2 and NFKBIE. The cDNA that was used was prepared from the same RNA used for the gene array experiment.

[1] = test system: encephalitogenic BP10 T-cell line; assay: Adoptive EAE by BP10 line stimulated in vitro with test substance; assay type: in vivo, rat; conditions: BP10 line stimulated 3 days with MBP in presence of 50 μg/ml; 10^7 cells IP per rat
From the text: The ability of a compound to enhance T cell activity may be determined, for example, using an in vivo assay testing the effect of a given compound on the severity of adoptive (passive) EAE, namely, EAE which is induced by the injection of activated encephalitogenic T cell line to the model animal. In order to test a compound, the encephalitogenic T cells are activated in the presence of the compound prior to injection. An exemplary procedure is described in the Examples section hereinbelow.
Antigen-specific T-cell lines were established from lymph node cells that had been stimulated with myelin basic protein (MBP; 10 μg/ml) for 3 days in stimulation medium as described below. Following stimulation, the T-cell blasts were isolated on Lympho-prep (Nycomed Pharma, Oslo, Norway) and seeded in propagation medium. Propagation medium was identical to stimulation medium without autologous serum, but supplemented with fetal calf serum 10% and T-cell growth factors from the supernatant of Con A stimulated spleen cells 10% (Mor et al. (1990) J Clin Invest, 85, 1594-1598). Animals were injected intra-peritoneally with 10^7 MBP-stimulated T cells, following 6-8 cycles of in vitro stimulations. It is known that MBP-reactive lines undergo a reduction in pathogenicity after 6 or more in vitro stimulations. In some experiments the BP10 line was stimulated with phorbol myristate acetate (PMA; 50 ng/ml) and ionomycin (500 ng/ml) for 3 days in stimulation medium, without antigen-presenting cells.
Active EAE was induced by subcutaneous injection of 25 μg guinea-pig MBP (GpMBP) in complete Freund's adjuvant (CFA). CFA was prepared by adding 4 mg/ml Mycobacterium tuberculosis H37Ra (Difco, Mich.) to incomplete Freund's adjuvant (IFA). Adoptive EAE was transferred by intra-peritoneal injection of guinea-pig MBP-activated cells of the BP10 line as described in Mor et al. (1993) J Clin Invest, 92, 2199-2206. […] Clinical scoring was: +1, paralysis of tail; +1.5, paresis of posterior paws and ataxia; +2, paraplegia; +3, paralysis extending to thoracic spine; +4, a moribund state.
Treatment with cefuroxime in vivo could affect many different host agents involved in EAE or AA as well as influencing the rats' bacterial flora. To test whether the antibiotic might directly modify the behavior of effector T cells, an encephalitogenic T-cell line was stimulated in the presence or absence of cefuroxime in vitro. The weakly encephalitogenic BP10 line was used, and was stimulated for 3 days with MBP in the presence or absence of cefuroxime (50 μg/ml). The activated T cells were then washed to remove the antibiotic, the T cells were injected intra-peritoneally into naïve recipient rats (10^7 per rat), and EAE was scored. The BP10 line at later stimulations was used, when its pathogenic potential is reduced, allowing to detect both suppression and enhancement of disease. […] To rule out antigen presenting cells (APC) as the target of the beta-lactam antibiotic, the encephalitogenic BP10 line was stimulated without APC using PMA (50 ng/ml) and Ionomycin (500 ng/ml) in the presence or absence of cefuroxime.

CC1(C)S[C@@H]2[C@H](NC(=O)[C@H](N)c3ccccc3)C(=O)N2[C@H]1C(=O)O [ampicillin]
number of the 57 cefuroxime-down-regulated genes up-regulated (CD4+ human T cells; 50 μg/ml): 56 genes
% increase by Amp. (CD4+ human T cells; gene ACTB): +196%
% increase by Amp. (CD4+ human T cells; gene ACVR1, A low expression): +53%
% increase by Amp. (CD4+ human T cells; gene ACVR2, A low expression): +85%
% increase by Amp. (CD4+ human T cells; gene CCL5): +25%
% increase by Amp. (CD4+ human T cells; gene CCL11): +107%
% increase by Amp. (CD4+ human T cells; gene CCR4): +31%
% increase by Amp. (CD4+ human T cells; gene CCR6): +83%
% increase by Amp. (CD4+ human T cells; gene CCR7): +43%
% increase by Amp. (CD4+ human T cells; gene CD28): +175%
% increase by Amp. (CD4+ human T cells; gene CD40LG): +67%
% increase by Amp. (CD4+ human T cells; gene CREBBP): +49%
% increase by Amp. (CD4+ human T cells; gene CXCL10): +25%
% increase by Amp. (CD4+ human T cells; gene EGR3): −25%
% increase by Amp. (CD4+ human T cells; gene GFI1): +10%
% increase by Amp. (CD4+ human T cells; gene HRAS, A low expression): −12%
% increase by Amp. (CD4+ human T cells; gene IL1B, A low expression): +64%
% increase by Amp. (CD4+ human T cells; gene IL2RB): +93%
% increase by Amp. (CD4+ human T cells; gene IL2RG, A low expression): +78%
% increase by Amp. (CD4+ human T cells; gene IL9R): No change
% increase by Amp. (CD4+ human T cells; gene IL16, A low expression): +14%
% increase by Amp. (CD4+ human T cells; gene IRAK1): +171%
% increase by Amp. (CD4+ human T cells; gene JAK1): +161%
% increase by Amp. (CD4+ human T cells; gene JUN): +65%
% increase by Amp. (CD4+ human T cells; gene LTA): +48.5%
% increase by Amp. (CD4+ human T cells; gene MAP2K4): +150%
% increase by Amp. (CD4+ human T cells; gene MAP3K1, A low expression): +63%
% increase by Amp. (CD4+ human T cells; gene MAP3K2): +93%
% increase by Amp. (CD4+ human T cells; gene MAP3K7): +124%
% increase by Amp. (CD4+ human T cells; gene MAPK9): +46%
% increase by Amp. (CD4+ human T cells; gene NFKB1): +31%
% increase by Amp. (CD4+ human T cells; gene NFKB2): +195%
% increase by Amp. (CD4+ human T cells; gene NFKBIE): +132%
% increase by Amp. (CD4+ human T cells; gene NFKBIL1): +191%
% increase by Amp. (CD4+ human T cells; gene PAK1): +111%
% increase by Amp. (CD4+ human T cells; gene PIN1): +105%
% increase by Amp. (CD4+ human T cells; gene RANBP5): +108%
% increase by Amp. (CD4+ human T cells; gene REL): +132%
% increase by Amp. (CD4+ human T cells; gene RFX5): +137%
% increase by Amp. (CD4+ human T cells; gene RFXAP): +131%
% increase by Amp. (CD4+ human T cells; gene SDF2): +71%
% increase by Amp. (CD4+ human T cells; gene SELL): +124%
% increase by Amp. (CD4+ human T cells; gene SMAD4): +85%
% increase by Amp. (CD4+ human T cells; gene SMAD7, A low expression): +34%
% increase by Amp. (CD4+ human T cells; gene SP3): +47%
% increase by Amp. (CD4+ human T cells; gene SRF): +58%
% increase by Amp. (CD4+ human T cells; gene STAT1): +85%
% increase by Amp. (CD4+ human T cells; gene STAT4): +11%
% increase by Amp. (CD4+ human T cells; gene STAT6): no change
% increase by Amp. (CD4+ human T cells; gene TGFBR3): +139%
% increase by Amp. (CD4+ human T cells; gene TGIF, A low expression): +72%
% increase by Amp. (CD4+ human T cells; gene TLR2, A low expression): +419%
% increase by Amp. (CD4+ human T cells; gene TNFRSF11A, A low expression): +81%
% increase by Amp. (CD4+ human T cells; gene TNFα): +39%
% increase by Amp. (CD4+ human T cells; gene TRAF5, A low expression): +47%
% increase by Amp. (CD4+ human T cells; gene TRAF6, A low expression): +39%
% increase by Amp. (CD4+ human T cells; gene YY1): +152%
severity of adoptive EAE [1]: did not increase the severity of EAE
